Entries after “also recorded” stand apart in the source; their conditions may differ.
Experiments:
caspase-3 and −7 = assay: Caspase-3 and -7 inhibition, acetyl-DEVD-AMC fluorogenic substrate assay (text does not say which caspase); assay type: biochemical; settings: for inhibition percentage: at 20 μg/ml, caspase not given; for Selectivity Index (SI): IC50 caspase-7/IC50 caspase-3, greater than 1.5 = selective inhibitor of caspase-3; for inhibitory activity against caspase-3 and −7 (in words): compared to Ac-DEVD-CHO
Description: (§1) The inhibitory activities of newly synthesised 2–(2,3-dioxoindolin-1-yl)-N-substituted phenyl acetamide, 1-(prop-2-yn-1-yl)indoline-2,3-dione and two series of compounds containing 1-(pyrrolidinyl)sulphonyl and 2-(phenoxymethyl)pyrrolidin-1-yl)sulphonyl substitution at C^5 position of isatin core (B, C, Table 1) against caspase-3 and −7 were evaluated by using the acetyl-DEVD-AMC fluorogenic substrate assay. The results are expressed as inhibition percentage and IC50 values in Table 1. We used Ac-DEVD-CHO as the positive control.
(§2) The activity assay of caspase-3 was performed in a system of 50 µL containing 150 mM NaCl, 1 mM EDTA, 2 mM DTT, 50 mM HEPES pH 7.4, 10 µM Ac-DEVD-AMC (Bachem Bioscience, Philadelphia, PA, USA) and 2 nM caspase-3 in the 1 µL DMSO. Caspase-3 was incubated with synthesised compounds in 384-well plates for 10 min. […] The enzymatic activity of the caspase-3 was measured based on production of a fluorogenic substrate, 7-amino-4-methyl coumarin, which was monitored for 10 min and detected using an EnVision (PerkinElmer, Wellesley, MA, USA) at λex = 360 nm and λem= 460 nm. The initial rate of hydrolysis was determined using the early linear region of the enzymatic reaction curve.

caspase-3 = molecular target: T1, caspase-3 (Homo sapiens, UniProt P42574); assay: Caspase-3 inhibition assay (Ac-DEVD-AMC fluorogenic substrate); assay type: biochemical
T1 sequence (P42574 29-175 limits assumed): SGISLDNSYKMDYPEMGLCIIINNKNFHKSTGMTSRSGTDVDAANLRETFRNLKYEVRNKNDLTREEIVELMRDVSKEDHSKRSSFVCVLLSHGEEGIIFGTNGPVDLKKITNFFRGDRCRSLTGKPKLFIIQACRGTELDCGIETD
T1 sequence (P42574 176-277 limits assumed): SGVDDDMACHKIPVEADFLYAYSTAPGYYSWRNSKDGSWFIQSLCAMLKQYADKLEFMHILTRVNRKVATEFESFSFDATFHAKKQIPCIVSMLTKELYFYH
Description: as §1, §2

Row | melting point [°C] | Compound | further results
1 | 158 to 160 | C#CCN1C(=O)C(=O)c2ccccc21 [11a, 1-(Prop-2-yn-1-yl)indoline-2,3-dione] | 
2 | 174 to 176 | O=C(CN1C(=O)C(=O)c2ccccc21)Nc1ccccc1 [11b, 2–(2,3-Dioxoindolin-1-yl)-N-phenylacetamide] | 
3 |  | O=C(CN1C(=O)C(=O)c2ccccc21)Nc1ccc(F)cc1 [11c, 2–(2,3-Dioxoindolin-1-yl)-N-(4-fluorophenyl)acetamide] | inhibition percentage (caspase-3 and −7): 71%
4 | 177 to 179 | O=C(CN1C(=O)C(=O)c2ccccc21)Nc1ccc(Cl)cc1 [11d, N-(4-Chlorophenyl)-2–(2,3-dioxoindolin-1-yl)acetamide] | 
5 | 179 to 181 | O=C(CN1C(=O)C(=O)c2ccccc21)Nc1ccc(Br)cc1 [11e, N-(4-Bromophenyl)-2–(2,3-dioxoindolin-1-yl)acetamide] | 
6 | 186 to 188 | O=C(CN1C(=O)C(=O)c2ccccc21)Nc1ccccc1[N+](=O)[O-] [11f, 2–(2,3-Dioxoindolin-1-yl)-N-(2-nitrophenyl)acetamide] | inhibition percentage (caspase-3 and −7): 5%
7 | 191 to 192 | O=C(CN1C(=O)C(=O)c2ccccc21)Nc1cccc([N+](=O)[O-])c1 [11g, 2–(2,3-Dioxoindolin-1-yl)-N-(3-nitrophenyl)acetamide] | 
8 | 179 to 181 | O=C(CN1C(=O)C(=O)c2ccccc21)Nc1ccc([N+](=O)[O-])cc1 [11h, 2–(2,3-Dioxoindolin-1-yl)-N-(4-nitrophenyl)acetamide] | 
9 | 209 to 211 | O=C(CN1C(=O)C(=O)c2ccccc21)Nc1ccc(OC(F)(F)F)cc1 [11i, 2–(2,3-Dioxoindolin-1-yl)-N-(4-(trifluoromethoxy)phenyl)acetamide] | 
10 | 196 to 198 | Cc1ccc(NC(=O)CN2C(=O)C(=O)c3ccccc32)cc1 [11j, 2–(2,3-Dioxoindolin-1-yl)-N-(p-tolyl)acetamide] | 
11 | 201 to 203 | COc1ccc(NC(=O)CN2C(=O)C(=O)c3ccccc32)cc1 [11k, 2–(2,3-Dioxoindolin-1-yl)-N-(4-methoxyphenyl)acetamide] | 
12 | 203 to 205 | C#CCN1C(=O)C(=O)c2cc(S(=O)(=O)N3CCCC3)ccc21 [19a, 1-(Prop-2-yn-1-yl)-5-(pyrrolidin-1-ylsulfonyl)indoline-2,3-dione] | Selectivity Index (SI) (caspase-3 and −7): greater than 1.5
13 | 191 to 193 | O=C(CN1C(=O)C(=O)c2cc(S(=O)(=O)N3CCCC3)ccc21)Nc1ccc(F)cc1 [19c, 2–(2,3-Dioxo-5-(pyrrolidin-1-ylsulfonyl)indolin-1-yl)-N-(4-fluorophenyl)acetamide] | 
14 | 195 to 197 | O=C(CN1C(=O)C(=O)c2cc(S(=O)(=O)N3CCCC3)ccc21)Nc1ccccc1[N+](=O)[O-] [19f, 2–(2,3-Dioxo-5-(pyrrolidin-1-ylsulfonyl)indolin-1-yl)-N-(2-nitrophenyl)acetamide] | 
15 | 266 to 267 | O=C(CN1C(=O)C(=O)c2cc(S(=O)(=O)N3CCCC3)ccc21)Nc1ccc(OC(F)(F)F)cc1 [19i, 2–(2,3-Dioxo-5-(pyrrolidin-1-ylsulfonyl)indolin-1-yl)-N-(4-(trifluoromethoxy)phenyl)acetamide] | 
16 | 282 to 284 | C#CCN1C(=O)C(=O)c2cc(S(=O)(=O)N3CCC[C@H]3COc3ccccc3)ccc21 [20a, (S)-5-((2-(Phenoxymethyl)pyrrolidin-1-yl)sulphonyl)-1-(prop-2-yn-1-yl)indoline-2,3-dione] | 
17 | 238 to 240 | O=C(CN1C(=O)C(=O)c2cc(S(=O)(=O)N3CCC[C@H]3COc3ccccc3)ccc21)Nc1ccccc1 [20b, (S)-2–(2,3-Dioxo-5-((2-(phenoxymethyl)pyrrolidin-1-yl)sulphonyl)indolin-1-yl)-N-phenylacetamide] | 
18 | 108 to 110 | O=C(CN1C(=O)C(=O)c2cc(S(=O)(=O)N3CCC[C@H]3COc3ccccc3)ccc21)Nc1ccc(F)cc1 [20c, (S)-2–(2,3-Dioxo-5-((2-(phenoxymethyl)pyrrolidin-1-yl)sulphonyl)indolin-1-yl)-N-(4-fluorophenyl)acetamide] | Selectivity Index (SI) (caspase-3 and −7): greater than 1.5
19 | 209 to 211 | O=C(CN1C(=O)C(=O)c2cc(S(=O)(=O)N3CCC[C@H]3COc3ccccc3)ccc21)Nc1ccc(Cl)cc1 [20d, (S)-N-(4-chlorophenyl)-2–(2,3-dioxo-5-((2-(phenoxymethyl)pyrrolidin-1-yl)sulphonyl)indolin-1-yl)acetamide] | Selectivity Index (SI) (caspase-3 and −7): greater than 1.5; inhibitory activity against caspase-3 and −7 (in words) (caspase-3 and −7): most active compound; also recorded: moderate inhibitory activity; IC50 (caspase-3): 2330 nM
20 | 196 to 198 | O=C(CN1C(=O)C(=O)c2cc(S(=O)(=O)N3CCC[C@H]3COc3ccccc3)ccc21)Nc1ccc(Br)cc1 [20e, (S)-N-(4-Bromophenyl)-2–(2,3-dioxo-5-((2-(phenoxymethyl)pyrrolidin-1-yl)sulphonyl)indolin-1-yl)acetamide] | Selectivity Index (SI) (caspase-3 and −7): greater than 1.5
21 | 180 to 182 | O=C(CN1C(=O)C(=O)c2cc(S(=O)(=O)N3CCC[C@H]3COc3ccccc3)ccc21)Nc1ccccc1[N+](=O)[O-] [20f, (S)-2–(2,3-Dioxo-5-((2-(phenoxymethyl)pyrrolidin-1-yl)sulphonyl)indolin-1-yl)-N-(2-nitrophenyl)acetamide] | inhibitory activity against caspase-3 and −7 (in words) (caspase-3 and −7): moderated caspase-3 and −7 inhibitors
22 | 181 to 183 | O=C(CN1C(=O)C(=O)c2cc(S(=O)(=O)N3CCC[C@H]3COc3ccccc3)ccc21)Nc1cccc([N+](=O)[O-])c1 [20g, (S)-2–(2,3-Dioxo-5-((2-(phenoxymethyl)pyrrolidin-1-yl)sulphonyl)indolin-1-yl)-N-(3-nitrophenyl)acetamide] | 
23 | 162 to 164 | O=C(CN1C(=O)C(=O)c2cc(S(=O)(=O)N3CCC[C@H]3COc3ccccc3)ccc21)Nc1ccc([N+](=O)[O-])cc1 [20h, (S)-2–(2,3-Dioxo-5-((2-(phenoxymethyl)pyrrolidin-1-yl)sulphonyl)indolin-1-yl)-N-(4-nitrophenyl)acetamide] | 
24 | 218 to 220 | O=C(CN1C(=O)C(=O)c2cc(S(=O)(=O)N3CCC[C@H]3COc3ccccc3)ccc21)Nc1ccc(OC(F)(F)F)cc1 [20i, (S)-2–(2,3-Dioxo-5-((2-(phenoxymethyl)pyrrolidin-1-yl)sulphonyl)indolin-1-yl)-N-(4-(trifluoromethoxy)phenyl)acetamide] | 
25 | 209 to 211 | Cc1ccc(NC(=O)CN2C(=O)C(=O)c3cc(S(=O)(=O)N4CCC[C@H]4COc4ccccc4)ccc32)cc1 [20j, (S)-2–(2,3-Dioxo-5-((2-(phenoxymethyl)pyrrolidin-1-yl)sulphonyl)indolin-1-yl)-N-(p-tolyl)acetamide] | inhibitory activity against caspase-3 and −7 (in words) (caspase-3 and −7): lowest enzymatic inhibition
26 | 204 to 206 | COc1ccc(NC(=O)CN2C(=O)C(=O)c3cc(S(=O)(=O)N4CCC[C@H]4COc4ccccc4)ccc32)cc1 [20k, (S)-2–(2,3-Dioxo-5-((2-(phenoxymethyl)pyrrolidin-1-yl)sulphonyl)indolin-1-yl)-N-(4-methoxyphenyl)acetamide] | inhibitory activity against caspase-3 and −7 (in words) (caspase-3 and −7): lowest enzymatic inhibition
27 |  | Ac-DEVD-CHO [reference compound] | IC50 (caspase-3 and −7; caspase-3 and −7, Mean ± SD of three experiments, read-out: IC50 (positive control / studied compounds)): 16 ± 2 nM

— publication PMC7470124, “Efficient synthesis, biological evaluation, and docking study of isatin based derivatives as caspase inhibitors” (Journal of Enzyme Inhibition and Medicinal Chemistry, 2020)
